Test results from patent EP0308983A2, “NMR imaging with Mn(II) coordination compositions” (priority 1987, dated 1989).

Assays:
[1] = Paramagnetic relaxation properties in water at 10 MHz (0.15T), RADX spin analyzer; type: physicochemical; conditions: for spin-lattice (T₁) relaxation value / spin-spin (T₂) relaxation value / millimolar relaxivity for T₁ / millimolar relaxivity for T₂ / Relaxivity (mM⁻¹sec⁻¹) Spin-Lattice / Relaxivity (mM⁻¹sec⁻¹) Spin-Spin: 10 MHz (0.15T); for millimolar relaxivity for T₁ / millimolar relaxivity for T₂: in water; for millimolar relaxivity for T₁: calculated from T₁ and concentration; for millimolar relaxivity for T₂: calculated from T₂ and concentration; for Spin-Spin Relaxivity: 0.15 T (10 MHz)
Protocol: The paramagnetic relaxation properties of [manganese(II)·(H₂O)₂·(L-alanine)₂]⁺²(Cl₂)⁻² in water were measured at 10 MHz (0.15T) with a spin analyzer (RADX; Houston, TX) at 37°C. After thermal equilibrium, the spin-lattice (T₁) and spin-spin (T₂) relaxation values were measured in triplicate.
The paramagnetic relaxation of the title compound in water was measured at 10 MHz (0.15T) with a spin analyzer (RADX; Houston, TX). After thermal equilibrium, the spin-lattice (T₁) and spin-spin (T₂) relaxation values were measured.
Relaxivity was measured at 10 MHz (0.15T) as described in Example 10.
The relaxivity of the title compound was performed at 0.15 T (10 MHz) with a RADX Spin Analyzer (Houston, TX) at 37°C.

[2] = Paramagnetic relaxation properties in human plasma at 37°C; type: physicochemical
[3] = 0.97 mM solution in water, 37°C, triplicate, mean +/- SD
[4] = 37°C, repeat measurement 80 minutes later

millimolar relaxivity for T₁ [1] | millimolar relaxivity for T₂ [1] | Compound | Relaxivity (mM⁻¹sec⁻¹) Spin-Lattice ([1]; 1 mM solution in water) | Relaxivity (mM⁻¹sec⁻¹) Spin-Spin ([1]; 1 mM solution in water) | Spin-Spin Relaxivity ([1]; 37°C) | spin-lattice (T₁) relaxation value ([1]; 1 mM solution in water) | spin-spin (T₂) relaxation value ([1]; 1 mM solution in water) | further results
9.12 mM⁻¹ s⁻¹ | 39.7 mM⁻¹ s⁻¹ | CC(C)[C@H](N)C(=O)O.CC(C)[C@H](N)C(=O)O.O.O.[Cl-].[Cl-].[Mn+2] [Manganese(II)·(H₂O)₂·(L-valine)₂]⁺²(Cl₂)⁻²] |  |  |  |  |  | spin-lattice (T₁) relaxation value [1, 3]: 113 ± 10 ms; spin-spin (T₂) relaxation value [1, 3]: 26 ± 1 ms; T₂ value ([2]; 92 µM final concentration, 37°C): 191 ± 8 ms; T₁ value ([2]; 92 µM final concentration, 37°C, triplicate): 250 ± 2 ms; R₁ ([2]; 37°C): 43.5 mM⁻¹ s⁻¹; R₂ ([2]; 37°C): 56.9 mM⁻¹ s⁻¹; T₁ changed by (repeat measurement) [2, 4]: 4%; T₂ changed by (repeat measurement) [2, 4]: 4%; T₂ relaxivity in plasma, fold greater than GdDTPA ([2]; versus GdDTPA): 11.9 fold; T₁ relaxivity in plasma, fold greater than GdDTPA ([2]; versus gadolinium diethylenetriaminepentaacetic acid chelate (GdDTPA)): 9.1 fold
 |  | CC(=O)[O-].CC(=O)[O-].NCC(=O)O.O.O.O.[Mn+2] [[Manganese(II)·(H₂O)₃]·(Glycine)]Diacetate] | 8.26 mM⁻¹ s⁻¹ | 33.3 mM⁻¹ s⁻¹ | 33.30 mM⁻¹ s⁻¹ |  |  | 
 |  | CC(=O)[O-].CC(=O)[O-].O.O.O.O.[Mn+2] [[Manganese(II)·(H₂O)₄]Diacetate, reference compound] | 9.09 mM⁻¹ s⁻¹ | 33.3 mM⁻¹ s⁻¹ | 33.30 mM⁻¹ s⁻¹ |  |  | 
6.80 mM⁻¹ s⁻¹ | 18.5 mM⁻¹ s⁻¹ | [Manganese(II)(H₂O)₂(L-serine)₂](Glycerophosphate) |  |  |  | 147 ms | 54 ms | 
 |  | CC(=O)[O-].CC(=O)[O-].NCC(=O)O.NCC(=O)O.NCC(=O)O.O.[Mn+2] [[Manganese(II)·(H₂O)·(Glycine)₃]Diacetate] | 8.47 mM⁻¹ s⁻¹ | 33.3 mM⁻¹ s⁻¹ |  |  |  | 
9.35 mM⁻¹ s⁻¹ | 37.0 mM⁻¹ s⁻¹ | NC(CO)C(=O)O.O.O.O.O=C([O-])C(O)C(O)C(O)C(O)CO.O=C([O-])C(O)C(O)C(O)C(O)CO.[Mn+2] [[Manganese(II)(H₂O)₃-L-Serine]Digluconate] |  |  |  | 107 ms | 27 ms | 
 |  | NCC(=O)[O-].NCC(=O)[O-].O.O.O.O.O.O.O=S(=O)([O-])[O-].[Mn+2].[Mn+2] [[Manganese(II)·CH₂(NH₂)COO-]₂⁺¹(SO₄^=), reference compound] |  |  | 2.92 mM⁻¹ s⁻¹ |  |  | 
 |  | CC(=O)[O-].CC(=O)[O-].NCC(=O)O.NCC(=O)O.NCC(=O)O.NCC(=O)O.[Mn+2] [[Manganese(II)·(Glycine)₄]Diacetate] | 8.00 mM⁻¹ s⁻¹ | 33.3 mM⁻¹ s⁻¹ |  |  |  | 

Compound | millimolar relaxivity for T₁ [1] | millimolar relaxivity for T₂ [1] | Relaxivity (mM⁻¹sec⁻¹) Spin-Lattice ([1]; 1 mM solution in water) | Relaxivity (mM⁻¹sec⁻¹) Spin-Spin ([1]; 1 mM solution in water) | Spin-Spin Relaxivity ([1]; 37°C) | spin-lattice (T₁) relaxation value ([1]; 1 mM solution in water) | spin-spin (T₂) relaxation value ([1]; 1 mM solution in water) | further results
CC(=O)[O-].C[C@H](N)C(=O)O.C[C@H](N)C(=O)O.C[C@H](N)C(=O)O.O.[I-].[Mn+2] [[Manganese(II)H₂O(L-Alanine)₃](Acetate Iodide)] | 9.62 mM⁻¹ s⁻¹ | 38.5 mM⁻¹ s⁻¹ |  |  |  | 104 ms | 26 ms | 
NCC(=O)O.N[C@@H](CO)C(=O)O.N[C@@H](Cc1c[nH]cn1)C(=O)O.O=C(O)[C@@H]1CCCN1.O=S(=O)([O-])[O-].[Mn+2] [[Manganese(II)·Glycine·L-Serine·L-Histidine·L-Proline](Sulfate)] | 9.71 mM⁻¹ s⁻¹ | 35.7 mM⁻¹ s⁻¹ |  |  |  | 103 ms | 28 ms | 
